Measurements as given in patent US20010002252A1, “TOOTH WHITENING PREPARATIONS” (priority 1994, published 2001).

Assay: Tooth whitening by brushing of extracted bovine teeth with toothpaste slurry, colorimeter L value
Experimental: Tooth whitening was measured by the following process:
Whitening was determined using a modification to a system normally employed in the dental arts for determining the abrasivity of dentifrices.
Bovine jaws were obtained at a local abattoir and the teeth were extracted in their native state; no pre-cleaning was done. Teeth were mounted in a cap with dental acrylic so as to fit the format of a colorimeter and the brushing instrument: a detailed description is given below. An initial brushing was done with a slurry of Crest Regular toothpaste and an Oral B40, medium bristle, toothbrush. Then an initial L value was determined on a colorimeter (Hunter). This was designated as the initial whiteness value. The wear tester device was manufactured by Ramè-Hart, of Mountain Lakes, N.J. This machine has often been used to test the abrasivity of dental preparations. Tooth brushes were mounted and the teeth and brushes aligned. A 1:3 slurry of paste and water was poured into the trays and brushing commenced for a total of six hours. The slurry was replaced hourly. At 3 and 6 hours L value determinations were made. This was done by first rinsing the teeth with deionized water, then placing them in a closed container at 100% humidity for 1 hours, then taking a reading on the colorimeter to obtain a 3 hour and 6 hour L value.
Toothpaste slurries were tested for their whitening effect. […]

O=P(O)(O)OP(=O)(O)OP(=O)(O)O [STP, sodium tripolyphosphate]
tooth whitening as compared with the placebo base (10% or higher STP in Table I toothpaste base, 1:3 slurry of paste and water, brushing 6 hours, L value at 3 and 6 hours): superior tooth whitening
pH at which the best whitening results were obtained (STP toothpaste slurries, pH adjusted with 3M NaOH or 3M HCl): around 8.0
